Results taken from patent US7541368B2, “Pyrazoles as inhibitors of tumor necrosis factor” (Aventis Pharmaceuticals Inc., priority 2003, dated 2009).

system: TNF-alpha release in THP-1 cells; assay: LPS-induced TNF-alpha release in THP-1 cells; format: cell-based; settings: Homo sapiens, THP-1, LPS-stimulated THP-1 cells; read-out: 50% inhibition in the LPS-induced TNF-alpha release in THP-1 cells assay at concentrations within the range
Method in brief: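 TNF-alpha in supernatants was quantified by sandwich ELISA against a log/log recombinant standard curve (0.125-16 ng/ml). Before this, THP-1 cells (1×10^6 cells/ml, serum-reduced) received compound at 1×10^−9 to 1×10^−6 M in 0.3% DMSO for 1 h, then LPS 20 μg/ml for 18 h.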

IC50, 10 to 500 nM:
Cc1ccc(-n2nc(C(C)(C)C)cc2NC(=O)Nc2ccc(CC3CCN(C(=O)c4cnc5ccccc5n4)CC3)cc2)cc1 [Compound A257, 1-(5-tert-Butyl-2-p-tolyl-2H-pyrazol-3-yl)-3-{4-[1-(quinoxaline-2-carbonyl)-piperidin-4-ylmethyl]-phenyl}-urea]
Cc1ccc(-n2nc(C(C)(C)C)cc2NC(=O)Nc2ccc(CC3CCN(C(=O)C4CCCO4)CC3)cc2)cc1 (stereo not drawn) [Compound A258, 1-(5-tert-Butyl-2-p-tolyl-2H-pyrazol-3-yl)-3-{4-[1-(tetrahydro-furan-2-carbonyl)-piperidin-4-ylmethyl]-phenyl}-urea]
COc1ccc(C(=O)N2CCC(Cc3ccc(NC(=O)Nc4cc(C(C)(C)C)nn4-c4ccc(C)cc4)cc3)CC2)cc1OC [Compound A261, 1-(5-tert-Butyl-2-p-tolyl-2H-pyrazol-3-yl)-3-{4-[1-(3,4-dimethoxy-benzoyl)-piperidin-4-ylmethyl]-phenyl}-urea]
COc1ccc(CC(=O)N2CCC(Cc3ccc(NC(=O)Nc4cc(C(C)(C)C)nn4-c4ccc(C)cc4)cc3)CC2)cc1OC [Compound A262, 1-(5-tert-Butyl-2-p-tolyl-2H-pyrazol-3-yl)-3-(4-{1-[2-(3,4-dimethoxy-phenyl)-acetyl]-piperidin-4-ylmethyl}-phenyl)-urea]
Cc1ccc(-n2nc(C(C)(C)C)cc2NC(=O)Nc2ccc(CC3CCN(C(=O)Cc4ccc5c(c4)OCO5)CC3)cc2)cc1 [Compound A263, 1-{4-[1-(2-Benzo[1,3]dioxol-5-yl-acetyl)-piperidin-4-ylmethyl]-phenyl}-3-(5-tert-butyl-2-p-tolyl-2H-pyrazol-3-yl)-urea]
COc1cc(OC)cc(C(=O)N2CCC(Cc3ccc(NC(=O)Nc4cc(C(C)(C)C)nn4-c4ccc(C)cc4)cc3)CC2)c1 [Compound A266, 1-(5-tert-Butyl-2-p-tolyl-2H-pyrazol-3-yl)-3-{4-[1-(3,5-dimethoxy-benzoyl)-piperidin-4-ylmethyl]-phenyl}-urea]
Cc1ccc(-n2nc(C(C)(C)C)cc2NC(=O)Nc2ccc(CC3CCN(C(=O)c4cccc(C(C)C#N)c4)CC3)cc2)cc1 (stereo not drawn) [Compound A272, 1-(5-tert-Butyl-2-p-tolyl-2H-pyrazol-3-yl)-3-(4-{1-[3-(cyano-methyl-methyl)-benzoyl]-piperidin-4-ylmethyl}-phenyl)-urea]
Cc1ccc(-n2nc(C(C)(C)C)cc2NC(=O)Nc2ccc(CC3CCN(C(=O)CCc4ccco4)CC3)cc2)cc1 [Compound A274, 1-(5-tert-Butyl-2-p-tolyl-2H-pyrazol-3-yl)-3-{4-[1-(3-furan-2-yl-propionyl)-piperidin-4-ylmethyl]-phenyl}-urea]
Cc1ccc(-n2nc(C(C)(C)C)cc2NC(=O)Nc2ccc(CC3CCN(C(=O)c4ccoc4)CC3)cc2)cc1 [Compound A286, 1-(5-tert-Butyl-2-p-tolyl-2H-pyrazol-3-yl)-3-{4-[1-(furan-3-carbonyl)-piperidin-4-ylmethyl]-phenyl}-urea]
COc1cccc(CC(=O)N2CCC(Cc3ccc(NC(=O)Nc4cc(C(C)(C)C)nn4-c4ccc(C)cc4)cc3)CC2)c1 [Compound A288, 1-(5-tert-Butyl-2-p-tolyl-2H-pyrazol-3-yl)-3-(4-{1-[2-(3-methoxy-phenyl)-acetyl]-piperidin-4-ylmethyl}-phenyl)-urea]
Cc1ccc(-n2nc(C(C)(C)C)cc2NC(=O)Nc2ccc(CC3CCN(C(=O)c4cc(C)c(C)o4)CC3)cc2)cc1 [Compound A298, 1-(5-tert-Butyl-2-p-tolyl-2H-pyrazol-3-yl)-3-{4-[1-(4,5-dimethyl-furan-2-carbonyl)-piperidin-4-ylmethyl]-phenyl}-urea]
Cc1ccc(-n2nc(C(C)(C)C)cc2NC(=O)Nc2ccc(CC3CCN(C(=O)c4ccc(-c5cnco5)cc4)CC3)cc2)cc1 [Compound A301, 1-(5-tert-Butyl-2-p-tolyl-2H-pyrazol-3-yl)-3-{4-[1-(4-oxazol-5-yl-benzoyl)-piperidin-4-ylmethyl]-phenyl}-urea]
